Calls of active or inactive are those of the source. The rule behind the calls is not given here.
What was measured:
[1] = Inhibition of V-ATpase in Saccharomyces cerevisiae […] vacuolar membranes after 10 mins by spectrophotometric based coupled enzyme assay; format: cell membranes, Saccharomyces cerevisiae W303, Membrane
[2] = system: Saccharomyces cerevisiae; test: Growth inhibition of Saccharomyces cerevisiae W303 at 0.5 uM after 2 to 3 days in glycerol condition relative to control; format: functional; settings: time day 2-3, read-out: GI
[3] = system: Saccharomyces cerevisiae W303; test: Inhibition of V-ATpase in Saccharomyces cerevisiae W303 pdr5 deletion mutant assessed as quinacrine accumulation in the cytosol at 0.5 uM after 4 hrs by fluorescence microscopic method; format: subcellular
[4] = system: Saccharomyces cerevisiae W303; test: Inhibition of V-ATpase in Saccharomyces cerevisiae W303 assessed as quinacrine accumulation in the cytosol at 0.5 uM after 4 hrs by fluorescence microscopic method; format: subcellular
[5] = system: Saccharomyces cerevisiae; test: Growth inhibition of Saccharomyces cerevisiae W303 pdr5 deletion mutant at 0.5 uM after 2 to 3 days in glycerol condition relative to control; format: functional; settings: time day 2-3, read-out: GI
[6] = system: Saccharomyces cerevisiae; test: Inhibition of V-ATpase in Saccharomyces cerevisiae BY4742 vacuolar membranes at 100 nM after 10 mins by spectrophotometric based coupled enzyme assay relative to control; format: cell membranes; settings: Membrane
[7] = system: Saccharomyces cerevisiae; test: Antifungal activity against Saccharomyces cerevisiae W303 pdr5 deletion mutant assessed as reduction in microbial growth at 0.5 uM after 2 to 3 days; format: functional, organism-based; settings: time day 2-3
[8] = system: Saccharomyces cerevisiae; test: Growth inhibition of Saccharomyces cerevisiae W303 at 0.5 uM after 2 to 3 days in ammonium iron(II) sulfate condition; format: functional, organism-based; settings: time day 2-3
[9] = system: Saccharomyces cerevisiae; test: Growth inhibition of Saccharomyces cerevisiae W303 pdr5 deletion mutant at 0.5 uM after 2 to 3 days in ammonium iron(II) sulfate condition; format: functional, organism-based; settings: time day 2-3
[10] = system: Jurkat; test: Cytotoxicity against human Jurkat cells assessed as reduction in cell viability; format: functional, cell-based
[11] = system: Saccharomyces cerevisiae; test: Growth inhibition of Saccharomyces cerevisiae W303 at 10 uM after 2 to 3 days in glycerol condition relative to control; format: functional; settings: time day 2-3, read-out: GI
[12] = system: Saccharomyces cerevisiae; test: Growth inhibition of Saccharomyces cerevisiae W303 at 0.5 to 10 uM after 2 to 3 days at pH 7.5 condition; format: functional, organism-based; settings: dose microM 0.5-10, time day 2-3
[13] = system: Jurkat; test: Cytotoxicity against human Jurkat cells assessed as reduction in cell viability in presence of pan-caspase inhibitor Z-VAD-FMK relative to control; format: functional
[14] = system: Saccharomyces cerevisiae; test: Growth inhibition of Saccharomyces cerevisiae W303 pdr5 deletion mutant at 0.5 to 10 uM after 2 to 3 days at pH 5 condition; format: functional, organism-based; settings: dose microM 0.5-10, time day 2-3
[15] = system: Saccharomyces cerevisiae W303; test: Inhibition of V-ATpase in Saccharomyces cerevisiae […] vacuolar membranes at 80 nM after 10 mins by spectrophotometric based coupled enzyme assay; format: cell membranes; settings: Membrane
[16] = system: Saccharomyces cerevisiae W303; test: Inhibition of V-ATpase in Saccharomyces cerevisiae W303 pdr5 deletion mutant assessed as quinacrine accumulation in the cytosol at 10 uM after 4 hrs by fluorescence microscopic method; format: subcellular
[17] = system: Saccharomyces cerevisiae; test: Antifungal activity against Saccharomyces cerevisiae W303 assessed as reduction in microbial growth at 10 uM after 2 to 3 days; format: functional, organism-based; settings: time day 2-3
[18] = system: Saccharomyces cerevisiae; test: Growth inhibition of Saccharomyces cerevisiae W303 at 0.5 to 10 uM after 2 to 3 days at pH 5 condition; format: functional, organism-based; settings: dose microM 0.5-10, time day 2-3
[19] = system: Saccharomyces cerevisiae W303; test: Inhibition of V-ATpase in Saccharomyces cerevisiae W303 assessed as quinacrine accumulation in the cytosol at 10 uM after 4 hrs by fluorescence microscopic method; format: subcellular
[20] = system: Saccharomyces cerevisiae; test: Growth inhibition of Saccharomyces cerevisiae W303 pdr5 deletion mutant at 10 uM after 2 to 3 days in ammonium iron(II) sulfate condition; format: functional, organism-based; settings: time day 2-3
[21] = system: Saccharomyces cerevisiae; test: Growth inhibition of Saccharomyces cerevisiae W303 pdr5 deletion mutant at 10 uM after 2 to 3 days in glycerol condition relative to control; format: functional; settings: time day 2-3, read-out: GI
[22] = system: Saccharomyces cerevisiae; test: Growth inhibition of Saccharomyces cerevisiae W303 at 10 uM after 2 to 3 days in ammonium iron(II) sulfate condition; format: functional, organism-based; settings: time day 2-3
[23] = system: Saccharomyces cerevisiae; test: Growth inhibition of Saccharomyces cerevisiae W303 pdr5 deletion mutant at 0.5 to 10 uM after 2 to 3 days at pH 7.5 condition; format: functional, organism-based; settings: dose microM 0.5-10, time day 2-3

`CO/C1=C\C(C)=C\[C@@H](C)[C@@H](O)[C@@H](C)C/C(C)=C/C=C/[C@H](OC)[C@@H]([C@@H](C)[C@@H](O)[C@H](C)[C@@]2(O)C[C@@H](O)[C@H](C)[C@@H](C(C)C)O2)OC1=O` [BAFILOMYCIN A1] gave an IC50 [1] of 4 nM.

With `C/C=C/[C@H]1O[C@@](O)([C@@H](C)[C@H](O)[C@H](C)[C@H]2OC(=O)/C(OC)=C/C(C)=C/[C@@H](C)[C@@H](O)[C@@H](CC)[C@@H](O)[C@H](C)C/C(C)=C/C=C/[C@@H]2OC)C[C@@H](O[C@H]2C[C@@H](O)[C@H](OC(N)=O)[C@@H](C)O2)[C@@H]1C` [CONCANAMYCIN A] the inhibition of growth at 0.5 µM [2] was 100%, the inhibition [3] was “Active” and the IC50 [1] was 3 nM. For the same compound, the inhibition [4] was “Active”, the inhibition of growth at 0.5 µM [5] was 100% and the inhibition [6] was 75%. The Activity [7] was “Active”, the “growth inhibition (GI)” value [8] was “inactive” and the “growth inhibition (GI)” value [9] was “inactive”.

In the case of `C[C@@H]1C/C=C/C(=O)O[C@H](/C=C/C#C/C=C/C(C)(C)[C@@H](O)c2cccc(O)c2Br)[C@@H](C)/C=C/[C@H](C)C[C@H](OC(N)=O)C1`, the IC50 [10] is reported as 115 nM.

In the case of `C[C@@H]1C/C=C\C(=O)O[C@H](/C=C/C#C/C=C/C(C)(C)[C@@H](O)c2cccc(O)c2Br)[C@@H](C)/C=C/[C@H](C)C[C@H](OC(N)=O)C1`, the inhibition of growth at 10 µM [11] is reported as 100%, the “growth inhibition (GI)” value [12] is reported as “Active” and the Activity [13] is reported as <3%. For the same compound, the “growth inhibition (GI)” value [14] was “Active”, the inhibition [15] was “Active” and the inhibition [16] was “Active”. The IC50 [10] was 43 nM, the Activity [17] was “Active” and the “growth inhibition (GI)” value [18] was “Active”. The inhibition [19] was “Active”, the IC50 [1] was 9.91 nM and the “growth inhibition (GI)” value [20] was “inactive”. For the same compound, the inhibition of growth at 10 µM [21] was 100%, the “growth inhibition (GI)” value [22] was “inactive” and the Activity [7] was “Active”. For the same compound, the “growth inhibition (GI)” value [23] was “Active”.
